Data from patent publication US20220135622A1, “ANTIBACTERIAL PEPTIDES AND METHODS OF USE” (priority 2019, published 2022).
≈ marks a conversion by molar mass, not a printed value. Where two headings read alike, the source gives them in different places. Square brackets hold non-standard residues; d marks the D form. Peptide text beside a SMILES is read from it. Bip = N[C@@H](Cc1ccc(-c2ccccc2)cc1)C(=O)O; hhPhe = N[C@@H](CCCc1ccccc1)C(=O)O; hPhe = N[C@@H](CCc1ccccc1)C(=O)O; Ahp(2) = CCCCC[C@H](N)C(=O)O; Dap = NC[C@H](N)C(=O)O

Assays:
E. coli BW25113 = assay type: cell-based, Escherichia coli
Protocol: (§1) Bacterial growth conditions. LB or Mueller Hinton II cation-adjusted broth (MHB II, BBL 212322) was prepared according to manufacturer's instructions and supplemented with arabinose at 0.02% for overnight growth or at indicated concentrations in the description of the figures. Bacterial cultures were grown at 37° C. When appropriate, media was supplemented with kanamycin (50 μg/mL), carbenicillin (50 μg/mL), chloramphenicol (12.5 or 25 μg/mL), hygromycin (200 μg/mL), and/or gentamicin (10 μg/mL).
(§2) Peptide sensitivity and MIC assays. Lyophilized peptides (Smartox Biotechnology, CPC Scientific. ABclonal) were solubilized to 10 mM in Tris buffer, pH 8, prior to making a 2-fold dilution series in MHBII cation adjusted broth with highest final assay concentration of 400-800 μM. Bacteria were grown to log phase and added to final OD600˜0.001. The final EDTA concentration was 0.5 mM for E. coli strains and 0.125 mM for USA300. The final volume of 10 μL/well in a 384 well black, clear bottom plate (Corning) was spun <1 min at <250×g and then incubated at 37° C. After 4 h, an equal volume (10 μL) of BacTiter-Glo™ (Promega) was added to each well and luminescence was read after 5 min on an EnVision plate reader (PerkinElmer). To measure the minimal inhibitory concentrations (MICs), bacteria from fresh overnight plates or log phase cultures were diluted with or without EDTA and peptides as described above to final OD600˜0.0002. Plates were incubated at 37° C. for 20 h before measuring OD600 with an EnVision plate reader.

S. aureus USA300 = assay: MIC assay, S. aureus USA300; assay type: cell-based, Staphylococcus aureus; details: Table 7
Protocol: as §1, §2

E. coli imp4213 = assay: MIC assay, E. coli imp4213; assay type: cell-based, Escherichia coli; details: Table 7
Protocol: as §1, §2

Row | Compound | MIC E. coli BW25113 (E. coli BW25113; BW25113) | MIC E. coli BW25113 (E. coli BW25113; Table 8) | MIC S. aureus USA300 (S. aureus USA300) | MIC E. coli imp4213 (E. coli imp4213)
1 | CC(=O)N[C@@H](CCCNC(=N)N)C(=O)N1CCC[C@H]1C(=O)N[C@@H](CCc1ccccc1)C(=O)N[C@H](C(=O)N[C@@H](C)C(=O)N[C@@H](CCCNC(=N)N)C(=O)N[C@@H](CCCNC(=N)N)C(=O)N[C@@H](Cc1c[nH]c2ccccc12)C(=O)N[C@@H](CC(C)C)C(=O)N[C@@H](C)C(=O)N[C@@H](CCCCN)C(=O)N[C@@H](CCCNC(=N)N)C(=O)NCC(=O)N[C@@H](CC(C)C)C(N)=O)[C@@H](C)O [compound 222] (Ac-RP[hPhe]TARRWLAKRGL-NH2) | 12.5 µM (≈ 22.3 µg/mL) | – | – | –
2 | CCCCC[C@H](NC(=O)[C@H](CCCCN)NC(=O)[C@H](C)NC(=O)[C@H](CC(C)C)NC(=O)[C@H](Cc1c[nH]c2ccccc12)NC(=O)[C@H](CCCNC(=N)N)NC(=O)[C@H](CCCNC(=N)N)NC(=O)[C@H](C)NC(=O)[C@@H](NC(=O)[C@H](CCSC)NC(=O)[C@@H]1CCCN1C(=O)[C@H](CCCNC(=N)N)NC(C)=O)[C@@H](C)O)C(=O)NCC(=O)N[C@@H](CC(C)C)C(N)=O [compound 224] (Ac-RPMTARRWLAK[Ahp(2)]GL-NH2) | – | 100.0 µM (≈ 172 µg/mL) | – | –
3 | CSCC[C@H](NC(=O)[C@H](CN)NC(=O)[C@H](CCCc1ccccc1)NC(=O)[C@@H]1CCCN1C(=O)[C@H](CCCNC(=N)N)NC(C)=O)C(=O)N[C@@H](CCCNC(=N)N)C(=O)N[C@@H](CCCNC(=N)N)C(=O)N[C@@H](Cc1ccc(-c2ccccc2)cc1)C(=O)N[C@@H](CC(C)C)C(=O)N[C@@H](C)C(=O)N[C@@H](CCCCN)C(=O)N[C@@H](CCCNC(=N)N)C(=O)NCC(=O)N[C@@H](CC(C)C)C(N)=O [compound 226] (Ac-RP[hhPhe][Dap]MRR[Bip]LAKRGL-NH2) | 25.0 µM (≈ 47 µg/mL) | – | – | –
4 | CSCC[C@H](NC(=O)[C@H](CN)NC(=O)[C@H](CCCc1ccccc1)NC(=O)[C@@H]1CCCN1C(=O)[C@H](CCCNC(=N)N)NC(C)=O)C(=O)N[C@@H](CCCNC(=N)N)C(=O)N[C@@H](CCCNC(=N)N)C(=O)N[C@@H](Cc1c[nH]c2ccccc12)C(=O)N[C@@H](CC(C)C)C(=O)N[C@@H](C)C(=O)N[C@@H](CCCCN)C(=O)N[C@@H](CCCNC(=N)N)C(=O)NCC(=O)N[C@@H](CC(C)C)C(N)=O [compound 227] (Ac-RP[hhPhe][Dap]MRRWLAKRGL-NH2) | 50.0 µM (≈ 92.1 µg/mL) | – | – | –
5 | Ac-APMTARRFLEKHGL-NH2 [compound 16] | – | – | >800 µM | 100 µM
6 | Ac-FPMTARRFLEKHGL-NH2 [compound 17] | – | – | >800 µM | 200 µM
7 | Ac-RPMTARRFLEKHGL-NH2 [compound 19] | – | – | >800 µM | 25 µM
8 | Ac-RPMTWRRWLEKHGL-NH2 [compound 204] | – | 200.0 µM | – | –
9 | Ac-RPMTWRRWLEKYGL-NH2 [compound 205] | 200.0 µM | – | – | –
10 | Ac-WPMTARRFLEKHGL-NH2 [compound 18] | – | – | >800 µM | 200 µM
11 | Ac-YAMTARRFLEKHGL-NH2 [compound 20] | – | – | >800 µM | 400 µM
12 | Ac-YPATARRFLEKHGL-NH2 [compound 21] | – | – | >800 µM | 800 µM
13 | Ac-YPFTARRFLEKHGL-NH2 [compound 23] | – | – | >800 µM | 400 µM
14 | Ac-YPFTFRRFLEKWGLLR-NH2 [compound 79] | – | 200.0 µM | – | –
15 | Ac-YPLTARRFLEKHGL-NH2 [compound 22] | – | – | >800 µM | 400 µM
16 | Ac-YPMAARRFLEKHGL-NH2 [compound 25] | – | – | >800 µM | 800 µM
17 | Ac-YPMKFRRFLEKWGLLR-NH2 [compound 107] | – | 12.5 µM | – | –
18 | Ac-YPMRFRRFLEKWGLLR-NH2 [compound 108] | – | <12.5 µM | – | –
19 | Ac-YPMSARRFLAKWGLLR-NH2 [compound 15] | – | – | 800 µM | <12.5 µM
20 | Ac-YPMSARRFLEKHGL-NH2 [compound 26] | – | – | >800 µM | 800 µM
21 | Ac-YPMTARRFLEKHGGL-NH2 [compound 101] | – | 50.0 µM | – | –
